The text below walks through data of patent US20040198973A1, “Process for preparation of carbapenem antibiotics” (priority 2001, published 2004).

One data set concerns Pseudomonas aeruginosa. The following applies: Document 1: Drug of the Future, 1996, 21(4): 361-365; cited from earlier work.
A short description of data set [1]: Solubility of starting compound 1 in organic solvents. The class given is physicochemical. The text has this: The process described in Document 3 (Kohichi Hirai, Hiroshi Maruyama, Journal of Synthetic Organic Chemistry, Japan, 57, 383 (1999)) is the one for implementing such a procedure wherein a side chain part including amine is first condensed with parent derived from azetidinone, then, an active ester is introduced into the condensate, and thereafter, the resulting product is subjected to ring-closing reaction to form a lactam ring. However, a compound into which an active ester has been already introduced, p-nitrobenzyl(1R,5S,6S)-2-diphenoxyphosphoryloxy-6-[(R)-1-hydroxyethyl]-1-methyl-1-carbapen-2-em-3-carboxylate (starting compound 1) is industrially available recently at an affordable price as a starting material for parent of carbapenem, so that the starting material has been replaced by the above-described compound. However, solubility of the starting compound 1 is high in a high boiling point solvent such as dimethylformamide and dimethylsulfoxide, while it is low in a solvent having a low boiling point such as tetrahydrofuran and acetonitrile, as well as in aromatic solvents such as toluene (see the following Table 1). Under the circumstances, when a high boiling point solvent is used, a difficulty in industrial level arises in case of removing the high boiling point solvent as described later in detail. For this reason, there are many cases wherein the above-described starting compound 1 cannot be applied to the process of Document 3.

With `C[C@@H](O)[C@H]1C(=O)N2C(C(=O)O)=C(S[C@@H]3CN[C@H]([C@H](O)[C@@H]4CCNC4)C3)[C@H](C)[C@H]12`, the antimicrobial action entry with Pseudomonas aeruginosa is recorded as “excellent antimicrobial action”.
For `C[C@@H](O)[C@H]1C(=O)N2C(C(=O)OCc3ccc([N+](=O)[O-])cc3)=C(OP(=O)(Oc3ccccc3)Oc3ccccc3)[C@H](C)[C@@H]12` [p-nitrobenzyl(1R,5S,6S)-2-diphenoxyphosphoryloxy-6-[(R)-1-hydroxyethyl]-1-methyl-1-carbapen-2-em-3-carboxylate], the Solubility in data set [1] (Acetonitrile, at 20° C., solvent volume per 0.1 g) is 0.6 ML/0.1 g; in data set [1] (Dimethylformamide, at 20° C., solvent volume per 0.1 g), <0.1 ML/0.1 g; in data set [1] (Methylsulfoxide, at 20° C., solvent volume per 0.1 g), <0.1 ML/0.1 g; in data set [1] (Tetrahydrofuran, at 20° C., solvent volume per 0.1 g), 0.6 ML/0.1 g; in data set [1] (Toluene, at 20° C., solvent volume per 0.1 g), >10 ML/0.1 g; in data set [1] (in a high boiling point solvent such as dimethylformamide and dimethylsulfoxide), “high”. The Solubility entry in data set [1] (in a low boiling point solvent such as tetrahydrofuran and acetonitrile, and aromatic solvents such as toluene) is on record as “low”.
